Read-outs that look alike come from different tables or passages of the source.
Key:
[1] = target: T1, DOXP reductoisomerase of Escherichia coli (UniProt P56139); experiment: inhibition of recombinant DOXP reductoisomerase (NADPH oxidation); format: biochemical; settings: 1 mM DOXP, 0,3 mM NADPH, pH 7,5; read-out: IC50(nM) of DOXP reductoisomerase from Helicobacter pilori
T1 sequence (P56139 1-368): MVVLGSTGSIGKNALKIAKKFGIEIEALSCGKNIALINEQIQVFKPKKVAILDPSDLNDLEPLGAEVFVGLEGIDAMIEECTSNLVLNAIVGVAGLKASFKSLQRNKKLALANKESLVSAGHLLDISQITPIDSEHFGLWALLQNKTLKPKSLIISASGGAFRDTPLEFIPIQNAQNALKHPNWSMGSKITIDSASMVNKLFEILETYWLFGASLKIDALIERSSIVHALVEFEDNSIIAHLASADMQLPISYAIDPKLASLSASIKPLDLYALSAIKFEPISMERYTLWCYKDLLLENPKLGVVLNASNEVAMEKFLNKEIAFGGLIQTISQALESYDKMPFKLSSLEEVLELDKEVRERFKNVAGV

Plasmodium falciparum = experiment: antimalaria activity on in vitro cultures, [3H]-hypoxanthine incorporation; format: cell-based; settings: 72 h, inhibition of [3H]-hypoxanthine incorporation, 48 + 24 hours, read-out: IC50(nM) of malaria culture (Plasmodium falciparum)
Protocol: The antimalaria activity of the compounds listed on page 9 was determined on in vitro cultures of the malaria pathogen Plasmodium falciparum. The depressions of a 96-well microtitre plate were charged with in each case 200 μl of an asynchroneous Plasmodium falciparum culture at a parasitaemia of 0,4% and haematokrit of 2%. A serial dilution series of the compounds in triple steps between concentrations of 100 to 0,14 μmol 1^−1 was then prepared. The plates were incubated at 37° C., 3% CO2 and 5% O2 over a period of 48 hours. 30 μl medium supplemented with 27 μCi ml^−1 [^3H]-hypoxanthine were then added to each well. After incubation for 24 hours the parasites were harvested by filtration on a glass fibre filter and the radioactivity which had been incorporated was measured. The inhibition of the growth of parasites was measured as the percentage inhibition of the incorporation of tritium. Inhibition of the growth of the parasites has been determined as percentage inhibition of incorporation of tritium based on a comparison without the substance. The half-maximum inhibitory concentration (IC50) of the substance was determined by extrapolation of the values.

Pseudomonas aeruginosa = experiment: antibacterial activity, minimum inhibition concentration in liquid culture; format: cell-based; settings: read-out: MIC(nM) of bacteria culture (Pseudomonas aeruginosa)
Protocol: A dilution series comprising the concentrations 500, 100, 50, 10 and 0 μmol 1^−1 of the individual compounds in LB medium is introduced into 5 culture microtubes in a volume of 0,5 ml. The tubes were inoculated with 10 μl of an overnight culture of E. coli K12 and shaken overnight at 37° C. The growth of the bacteria was assessed on the basis of the turbidity of the medium. The minimum concentration causing inhibition of bacterial growth was determined (minimum inhibition concentration MIC)
The antibacterial activity of P. aeruginosa was determined in the same manner.

Echinochloa = experiment: herbicidal activity, Hydro Vorauflauf; format: in vivo; settings: for pest or weed control at 1000 g/ha: 1000 Gramm/Hektar
Protocol: (§1) The determination of herbicidal activity is performed according to standard procedure. Again the compounds listed on page 9 are tested.

Lepidium = experiment: herbicidal activity, Hydro Vorauflauf; format: in vivo; settings: for pest or weed control at 1000 g/ha: 1000 Gramm/Hektar
Protocol: as §1

Reis = experiment: herbicidal activity, Hydro Vorauflauf; format: in vivo; settings: for pest or weed control at 1000 g/ha: 1000 Gramm/Hektar
Protocol: as §1

Solanum = experiment: herbicidal activity, Hydro Vorauflauf; format: in vivo; settings: for pest or weed control at 1000 g/ha: 1000 Gramm/Hektar
Protocol: as §1

Abutilon theophrasti [2] = experiment: herbicidal activity, Erde Vorauflauf; format: in vivo; settings: for pest or weed control at 500 g/ha: 500 Gramm/Hektar
Protocol: as §1

Alopecurus myosuroides [3] = experiment: herbicidal activity, Erde Vorauflauf; format: in vivo; settings: for pest or weed control at 500 g/ha: 500 Gramm/Hektar
Protocol: as §1

Amaranthus retroflexus [4] = experiment: herbicidal activity, Erde Vorauflauf; format: in vivo; settings: for pest or weed control at 500 g/ha: 500 Gramm/Hektar
Protocol: as §1

Avena fatua [5] = experiment: herbicidal activity, Erde Vorauflauf; format: in vivo; settings: for pest or weed control at 500 g/ha: 500 Gramm/Hektar
Protocol: as §1

Beta vulgaris [6] = experiment: herbicidal activity, Erde Vorauflauf; format: in vivo; settings: for plant injury at 500 g/ha: 500 Gramm/Hektar
Protocol: as §1

Cyperus esculentus [7] = experiment: herbicidal activity, Erde Vorauflauf; format: in vivo; settings: for pest or weed control at 500 g/ha: 500 Gramm/Hektar
Protocol: as §1

Galium aperine [8] = experiment: herbicidal activity, Erde Vorauflauf; format: in vivo; settings: for pest or weed control at 500 g/ha: 500 Gramm/Hektar
Protocol: as §1

Setaria viridis [9] = experiment: herbicidal activity, Erde Vorauflauf; format: in vivo; settings: for pest or weed control at 500 g/ha: 500 Gramm/Hektar
Protocol: as §1

Sinapis arvensis [10] = experiment: herbicidal activity, Erde Vorauflauf; format: in vivo; settings: Mutarda arvensis; for pest or weed control at 500 g/ha: 500 Gramm/Hektar
Protocol: as §1

Xanthium strumarium [11] = experiment: herbicidal activity, Erde Vorauflauf; format: in vivo; settings: for pest or weed control at 500 g/ha: 500 Gramm/Hektar
Protocol: as §1

Zea mays [12] = experiment: herbicidal activity, Erde Vorauflauf; format: in vivo; settings: for plant injury at 500 g/ha: 500 Gramm/Hektar
Protocol: as §1

Abutilon theophrasti [13] = experiment: herbicidal activity, Erde Nachauflauf; format: in vivo; settings: for pest or weed control at 500 g/ha: 500 Gramm/Hektar
Protocol: as §1

Alopecurus myosuroides [14] = experiment: herbicidal activity, Erde Nachauflauf; format: in vivo; settings: for pest or weed control at 500 g/ha: 500 Gramm/Hektar
Protocol: as §1

Amaranthus retroflexus [15] = experiment: herbicidal activity, Erde Nachauflauf; format: in vivo; settings: for pest or weed control at 500 g/ha: 500 Gramm/Hektar
Protocol: as §1

Avena fatua [16] = experiment: herbicidal activity, Erde Nachauflauf; format: in vivo; settings: for pest or weed control at 500 g/ha: 500 Gramm/Hektar
Protocol: as §1

Beta vulgaris [17] = experiment: herbicidal activity, Erde Nachauflauf; format: in vivo; settings: for plant injury at 500 g/ha: 500 Gramm/Hektar
Protocol: as §1

Cyperus esculentus [18] = experiment: herbicidal activity, Erde Nachauflauf; format: in vivo; settings: for pest or weed control at 500 g/ha: 500 Gramm/Hektar
Protocol: as §1

Galium aperine [19] = experiment: herbicidal activity, Erde Nachauflauf; format: in vivo; settings: for pest or weed control at 500 g/ha: 500 Gramm/Hektar
Protocol: as §1

Setaria viridis [20] = experiment: herbicidal activity, Erde Nachauflauf; format: in vivo; settings: for pest or weed control at 500 g/ha: 500 Gramm/Hektar
Protocol: as §1

Sinapis arvensis [21] = experiment: herbicidal activity, Erde Nachauflauf; format: in vivo; settings: Mutarda arvensis; for pest or weed control at 500 g/ha: 500 Gramm/Hektar
Protocol: as §1

Xanthium strumarium [22] = experiment: herbicidal activity, Erde Nachauflauf; format: in vivo; settings: for pest or weed control at 500 g/ha: 500 Gramm/Hektar
Protocol: as §1

Zea mays [23] = experiment: herbicidal activity, Erde Nachauflauf; format: in vivo; settings: for plant injury at 500 g/ha: 500 Gramm/Hektar
Protocol: as §1

[24] = LB medium, overnight at 37° C., turbidity

CC1(C)CON(C(=O)CP(C)(=O)O)C1=O [Compound 1]
30%: plant injury at 500 g/ha (Beta vulgaris [6])
800 nM: IC50 (Plasmodium falciparum)
60%: pest or weed control at 500 g/ha (Xanthium strumarium [22])
90%: pest or weed control at 500 g/ha (Galium aperine [19])
22 nM: IC50 [1]
50%: pest or weed control at 1000 g/ha (Reis) | pest or weed control at 500 g/ha (Alopecurus myosuroides [3]) | pest or weed control at 500 g/ha (Alopecurus myosuroides [14]) | pest or weed control at 500 g/ha (Avena fatua [16])
95%: pest or weed control at 500 g/ha (Setaria viridis [20]) | pest or weed control at 500 g/ha (Sinapis arvensis [21])
500 nM: MIC (Pseudomonas aeruginosa; [24])
70%: plant injury at 500 g/ha (Beta vulgaris [17])
0%: pest or weed control at 1000 g/ha (Solanum) | pest or weed control at 500 g/ha (Abutilon theophrasti [2]) | pest or weed control at 500 g/ha (Amaranthus retroflexus [4]) | pest or weed control at 500 g/ha (Avena fatua [5]) | pest or weed control at 500 g/ha (Cyperus esculentus [7]) | pest or weed control at 500 g/ha (Galium aperine [8]) | pest or weed control at 500 g/ha (Setaria viridis [9]) | pest or weed control at 500 g/ha (Xanthium strumarium [11]) | plant injury at 500 g/ha (Zea mays [12]) | pest or weed control at 500 g/ha (Amaranthus retroflexus [15]) | pest or weed control at 500 g/ha (Cyperus esculentus [18])
40%: pest or weed control at 1000 g/ha (Lepidium) | pest or weed control at 500 g/ha (Sinapis arvensis [10]) | pest or weed control at 500 g/ha (Abutilon theophrasti [13])
80%: pest or weed control at 1000 g/ha (Echinochloa) | plant injury at 500 g/ha (Zea mays [23])

O=C1CCON1CC(O)CP(=O)(O)O (stereo not drawn) [Compound 2]
1600 nM: MIC (Pseudomonas aeruginosa)
90%: pest or weed control at 500 g/ha (Setaria viridis [20])
30%: pest or weed control at 500 g/ha (Avena fatua [16]) | pest or weed control at 500 g/ha (Sinapis arvensis [21])
0%: pest or weed control at 1000 g/ha (Echinochloa) | pest or weed control at 1000 g/ha (Lepidium) | pest or weed control at 1000 g/ha (Reis) | pest or weed control at 1000 g/ha (Solanum) | pest or weed control at 500 g/ha (Abutilon theophrasti [2]) | pest or weed control at 500 g/ha (Alopecurus myosuroides [3]) | pest or weed control at 500 g/ha (Amaranthus retroflexus [4]) | pest or weed control at 500 g/ha (Avena fatua [5]) | plant injury at 500 g/ha (Beta vulgaris [6]) | pest or weed control at 500 g/ha (Cyperus esculentus [7]) | pest or weed control at 500 g/ha (Galium aperine [8]) | pest or weed control at 500 g/ha (Setaria viridis [9]) | pest or weed control at 500 g/ha (Sinapis arvensis [10]) | pest or weed control at 500 g/ha (Xanthium strumarium [11]) | plant injury at 500 g/ha (Zea mays [12]) | pest or weed control at 500 g/ha (Abutilon theophrasti [13]) | pest or weed control at 500 g/ha (Alopecurus myosuroides [14]) | pest or weed control at 500 g/ha (Amaranthus retroflexus [15]) | plant injury at 500 g/ha (Beta vulgaris [17]) | pest or weed control at 500 g/ha (Cyperus esculentus [18]) | pest or weed control at 500 g/ha (Galium aperine [19]) | plant injury at 500 g/ha (Zea mays [23])
50%: pest or weed control at 500 g/ha (Xanthium strumarium [22])
110 nM: IC50 [1]
1200 nM: IC50 (Plasmodium falciparum)

CN(C)CCCN1OCCCC1=O [Compound 6]
80%: pest or weed control at 2000 g/ha (Galium aperine [19]; 2000 Gramm/Hektar)
70%: pest or weed control at 2000 g/ha (Alopecurus myosuroides [3]; 2000 Gramm/Hektar) | pest or weed control at 2000 g/ha (Amaranthus retroflexus [15]; 2000 Gramm/Hektar) | pest or weed control at 2000 g/ha (Setaria viridis [20]; 2000 Gramm/Hektar) | plant injury at 2000 g/ha (Zea mays [23]; 2000 Gramm/Hektar)
40%: pest or weed control at 4000 g/ha (Reis; 4000 Gramm/Hektar) | pest or weed control at 2000 g/ha (Alopecurus myosuroides [14]; 2000 Gramm/Hektar) | plant injury at 2000 g/ha (Beta vulgaris [17]; 2000 Gramm/Hektar)
60%: plant injury at 2000 g/ha (Beta vulgaris [6]; 2000 Gramm/Hektar) | pest or weed control at 2000 g/ha (Abutilon theophrasti [13]; 2000 Gramm/Hektar) | pest or weed control at 2000 g/ha (Avena fatua [16]; 2000 Gramm/Hektar) | pest or weed control at 2000 g/ha (Sinapis arvensis [21]; 2000 Gramm/Hektar) | pest or weed control at 2000 g/ha (Xanthium strumarium [22]; 2000 Gramm/Hektar)
1600 nM: IC50 (Plasmodium falciparum)
30%: pest or weed control at 4000 g/ha (Lepidium; 4000 Gramm/Hektar) | pest or weed control at 2000 g/ha (Sinapis arvensis [10]; 2000 Gramm/Hektar)
0%: pest or weed control at 4000 g/ha (Solanum; 4000 Gramm/Hektar) | pest or weed control at 2000 g/ha (Abutilon theophrasti [2]; 2000 Gramm/Hektar) | pest or weed control at 2000 g/ha (Amaranthus retroflexus [4]; 2000 Gramm/Hektar) | pest or weed control at 2000 g/ha (Avena fatua [5]; 2000 Gramm/Hektar) | pest or weed control at 2000 g/ha (Cyperus esculentus [7]; 2000 Gramm/Hektar) | pest or weed control at 2000 g/ha (Galium aperine [8]; 2000 Gramm/Hektar) | pest or weed control at 2000 g/ha (Setaria viridis [9]; 2000 Gramm/Hektar) | pest or weed control at 2000 g/ha (Xanthium strumarium [11]; 2000 Gramm/Hektar) | plant injury at 2000 g/ha (Zea mays [12]; 2000 Gramm/Hektar) | pest or weed control at 2000 g/ha (Cyperus esculentus [18]; 2000 Gramm/Hektar)
2500 nM: MIC (Pseudomonas aeruginosa; [24])
50%: pest or weed control at 4000 g/ha (Echinochloa; 4000 Gramm/Hektar)
130 nM: IC50 [1]

Source: US6638957B1, “Use of compounds with a nitrogen-oxygen heterocycle” (Jomaa Pharmaka GmbH, priority 1999, dated 2003)
